Measurements from US11807881B2, “Polypeptide, fusion polypeptide, and antibiotic against gram-negative bacteria comprising same” (priority 2020, dated 2023).

What was measured:
P. aeruginosa = experiment: MIC of polymyxin-based antibiotics with LNT101 (broth microdilution); type: cell-based; settings: for reduction of MIC of the polymyxin-based antibiotic in combination with LNT101: LNT101 endolysin 1 μM; for MIC of antibiotics: P. aeruginosa 1×10^5 CFU/ml, 37° C. 18 hours, combination with LNT101 endolysin 1 μM, otherwise PBS
Protocol: The synergy effect by treatment in combination of the polymyxin-based antibiotic having a mechanism acting on the cell membrane of bacterium and endolysin LNT101 was confirmed. Specifically, polymyxin B (32 μg/ml-0.03 μg/ml) and colistin (128 μg/ml-0.1 μg/ml) were diluted by ½ per well in a microplate, and then a LNT101 endolysin 1 μM combination treatment group and the same amount of PBS treatment group was made. In all wells, P. aeruginosa 1×10^5 CFU/ml was treated by total 100 μl. After that, they were cultured at 37° C. for 18 hours.
The MIC change of the polymyxin-based antibiotic by combination treatment of the polymyxin-based antibiotic (polymyxin B, Colistin) and LNT101 endolysin at various concentrations was confirmed, and shown in Table 3 below.

E. coli(ATCC 8739) = experiment: MIC of polymyxin-based antibiotics with LNT102 (broth microdilution); type: cell-based; settings: + PBS or + LNT102 endolysin 1 μM, 37° C. 18 hours
Protocol: (§1) A synergy effect by combination treatment of a polymyxin-based antibiotic having a mechanism acting on the cell membrane of bacterium and endolysin LNT102 purified in Example 2.2 was confirmed. Specifically, after treating 4 μg/ml Polymyxin B to the 96 well microplate row A, serial dilution was performed by ½ in rows B-G. Polymyxin was not treated to the row H. After treating 8 μg/ml Colistin to the 96 well microplate row A, a combination treatment group in which LNT102 endolysin 1 μM was further treated and a PBS treatment group in the same amount were made. All wells were treated with Pseudomonas aeruginosa and Escherichia coli in an amount of 1×10^5 CFU/ml, total 100 μl, respectively. After that, they were cultured at 37° C. for 18 hours.
(§2) The MIC change of the polymyxin-based antibiotics by combination treatment of the polymyxin-base antibiotics (polymyxin B, Colistin) at various concentrations and LNT102 endolysin was measured and shown in Table 5 below.

[1] = test system: P. aeruginosa (ATCC 27853); experiment: as above; type: cell-based; settings: + PBS or + LNT102 endolysin 1 μM, 37° C. 18 hours
Protocol: as §1, §2

[2] = test system: A. baumannii (ATCC 19606); experiment: as above; type: cell-based; settings: + PBS or + LNT102 endolysin 1 μM, 37° C. 18 hours
[3] = test system: Pseudomonas aeruginosa PA01; experiment: Galleria mellonella Pseudomonas aeruginosa infected model, viability; type: in vivo; settings: PA01 50 CFU/larva; LNT101 0.6 or 6 μg/larva, Colistin 0.5 μg/larva; observation for 72 hours
Protocol: The Pseudomonas aeruginosa killing ability of the endolysin LNT101 was also confirmed in vivo. As an animal model for the in vivo effectivity evaluation, Galleria mellonella was used. The Galleria mellonella model was divided into the healthy group (non-infection group), Pseudomonas aeruginosa infected group (drug non-administration group), 2 LNT101 administration groups in which LNT101 was administered into the infection model, Colistin administration group in which colistin was administered into the Pseudomonas aeruginosa infected model, and combination administration group in which LNT101 and colistin were administered in combination into the Pseudomonas aeruginosa infected model to progress an experiment, and 10 of Galleria mellonella per each group was used.
The Pseudomonas aeruginosa infected model was prepared by infecting Pseudomonas aeruginosa PA01 at the LD80 concentration, 50 CFU/larva, and LNT101 was administered at 0.6 μg/larva (3 mg/Kg) and 6 μg/larva (30 mg/Kg), respectively. Colistin was administered at 0.5 μg/larva (2.5 mg/Kg), and for administration in combination, Colistin at 0.5 μg/larva (2.5 mg/Kg) and LNT101 at 6 μg/larva (30 mg/Kg) were administered. […] In particular, in the LNT101 6 μg/larva (30 mg/Kg) administration group, the viability of 30% was confirmed.

gram negative bacteria = experiment: MIC change of polymyxin-based antibiotics with LNT102, all strains of Table 5; type: cell-based, P. aeruginosa, A. baumannii, E. coli; settings: LNT102 endolysin 1 μM; maximum over the strains of Table 5
Protocol: as §1, §2

gram negative bacterium = experiment: CFU reduction evaluation on various gram negative bacterium; type: cell-based
Protocol: For this, Endolysin LNT101 and LNT102 at a concentration of 2 μM and each 1×10^6 CFU of Pseudomonas aeruginosa (PA01; ATCC 15692), Acinetobacter baumannii (ATCC 17978), Escherichia coli (ATCC 8739), Klebsiella pneumoniae (ATCC 13883), Enterobacter aerogenes (CCARM 16006), and Salmonella enteritidis (ATCC 13076) was added in reaction buffer (20 mM Tris-Cl, pH 7.5) so that the final volume was 200 μl, and it was left at 37° C. for 2 hours. In 2 hours, the number of colonies of each gram negative bacterium was confirmed, and the result was shown in FIG. 8 (in FIG. 8, PA90 represents endolysin LNT101 and mtPA90 represents endolysin LNT102, respectively).
The endolysin LNT102 at a concentration of 0.1, 0.5, 2.5 μM, and each 1×10^6 CFU of Pseudomonas aeruginosa, Acinetobacter baumannii, and Escherichia coli was added in reaction buffer (20 mM Tris-Cl, pH 7.5) so that the final volume was 200 μl, and it was left at 37° C. for 2 hours.
In order to confirm the killing ability against gram negative bacterium of the fusion polypeptide LNT103 prepared in Example 3.2, CFU reduction evaluation was performed for various gram negative bacterium. In order to perform the CFU reduction evaluation, 2 μM of each of LNT101, LNT102, and LNT103 prepared in Example 3, and 1×10^6 CFU of each of Pseudomonas aeruginosa (PA01; ATCC 15692), Acinetobacter baumannii (ATCC 17978), Escherichia coli (ATCC 8739), Klebsiella pneumoniae (ATCC 13883), and Enterobacter aerogenes (CCARM 16006) were added to reaction buffer (20 mM Tris-Cl, pH7.5) so that the final volume was 200 μl, and it was left at 37° C. for 2 hours. After that, the number of the colonies of each gram negative bacterium was confirmed to compare and evaluate the antibiotic effect of each polypeptide. As a control group, the PBS treatment group (treating PBS in the same volume as the fusion polypeptide) was used.
In addition, the same test was performed by using the fusion polypeptide LNT103, and CecA-LNT101 at a concentration of 2 μM, and the result was shown in FIG. 15. For comparison, the same test was performed for groups treated with LNT102 or PBS.
On the other hand, in order to compare the antibacterial activity in case that a protein other than endolysin (LNT102 or LNT101) was fused to Cecropin A, the killing ability against gram negative bacterium of the fusion polypeptide LNT103 and cecropin A-EGFP fusion protein (a protein in which EGFP (GenBank Accession No. AAB02572.1) having no endolysin activity by replacing LNT102 in LNT103) was evaluated. For this, the proteins were treated in an amount of 0.2 μM or 2 μM, respectively, to perform the CFU reduction test. […] In particular, it could be confirmed that the CFU Counting result for all the tested gram negative bacterium killed all bacterium treated with 0, when LNT103 2 μM was treated.
Furthermore, the killing ability against gram negative bacterium according to the concentration and/or treatment time of the fusion polypeptide LNT103 was tested. Specifically, the fusion polypeptide LNT103 at a concentration of 0.1, 0.3, 0.9, or 2.7 μM and 1×10^6 CFU of Pseudomonas aeruginosa (PA01; ATCC 15692) or Acinetobacter baumannii (ATCC 19606) were added to reaction buffer (20 mM Tris-Cl, pH7.5) so that the final volume was 200 μl, and it was left at 37° C. for 2 hours, and then the number of the colonies was confirmed, and the result was shown in A of FIG. 17.
In addition, the fusion polypeptide LNT103 at a concentration of 2 μM and 1×10^6 CFU of Pseudomonas aeruginosa (PA01; ATCC 15692) were added to reaction buffer (20 mM pH7.5) so that the final volume was 200 μl, and in 0, 20 minutes, 40 minutes and 60 minutes at 37° C., the number of the colonies was confirmed, and the result was shown in B of FIG. 17. […]

Molecule	reduction of MIC of the polymyxin-based antibiotic in combination with LNT101 (P. aeruginosa)	MIC of antibiotics (P. aeruginosa)	MIC of the polymyxin-based antibiotic (E. coli(ATCC 8739))	MIC of the polymyxin-based antibiotic [1]	MIC of the polymyxin-based antibiotic [2]	viability of Galleria mellonella [3]	reduction of MIC of the polymyxin-based antibiotic in combination with LNT102 (gram negative bacteria)	counting result (gram negative bacterium; 2 μM, all the tested bacterium (FIG. 15))	killing ability (number of colonies) (gram negative bacterium; 2 μM, 2 hours, 37° C., P. aeruginosa PA01, A. baumannii ATCC 17978, E. coli ATCC 8739, K. pneumoniae ATCC 13883, E. aerogenes CCARM 16006, S. enteritidis ATCC 13076)	killing ability (number of colonies) (gram negative bacterium; 0.1, 0.5, 2.5 μM, 30 minutes, 1 hour and 2 hours, Pseudomonas aeruginosa, Acinetobacter baumannii, Escherichia coli)
Colistin	50%	8 mg/L	2 mg/L	2 mg/L	2 mg/L	the viability was increased	reduced by 1/16 times at maximum	–	–	–
polymyxin B	50%	4 mg/L	0.5 mg/L	0.5 mg/L	0.5 mg/L	–	reduced by 1/16 times at maximum	–	–	–
CecA-LNT101: fusion polypeptide in which Cecropin A was fused to endolysin LNT101; SEQ ID NO: 16 used in the tests (protein, synthetic_Fusion Polypeptide CecA-LNT101 with MAS, His tag, and extra sequence) MASKWKLFKKIEKVGQNIRDGIIKAGPAVAVVGQATQIAKGSGSGSMGTVLKRGDRGSAVEDLQMKLRVAGYAVSADGIFGGDTEKAVRDFQASKALVVDGKVGPATLAELAKSATVPAKWEAIPFPTANKSRSAAMPTLNAVGAMTGTDSRLLATFASIESAFDYTVKASTSSATGWFQFLDATWDDMIKAHGSKYGIPKDPTRALRKDPRANALMGAEFLKGNAAVLRPVINREPSDTDLYLAHFLGAGGAKKFLSADQKTLGEVLFPKPAKANPSIFSNKGVPRTLAEIYKLFEDKVSKHRALEHHHHHH	–	–	–	–	–	–	–	0 log CFU/ml	–	–
LNT102: endolysin LNT101 variant with 15 amino acid mutations, SEQ ID NO: 6, purified with 6× His tag (protein, 6xHis tag; synthetic_Endolysin LNT102) MGTVLKRGDRGSAVEDLQMKLNVAGYNLSADGIFGGDTEKAVRDVQAGAGLVVDGKVGPKTLYAIAKSATVPAKWEAIPFPTANKSRSAAMPTLNAVGAMTGVDSRLLATFASIESAFDYTVKAKTSSATGWFQFLDATWDDMIKAYGSKYGIPKDPTRALRKDPRANALMGAEFIKGNAAVLRPVINREPSDTDLYLAHFLGAGGAKKFLSADQKTLGEVLFPKPAKANPSIFSNKGVPRTLAEIYKLFEDKVSKHRA	–	–	–	–	–	–	–	–	more excellent killing ability against gram negative bacterium in the same dose-, compared to LNT101	had the killing ability against gram negative bacterium in all the tested treatment doses and time
